Columns and labels:
[1] = system: pancreatic cancer line Capan-1 cells; assay: CTG (CellTiter-Glo) cell viability assay, 6×6 combo matrix, 72 h, Capan-1; assay type: cell-based; details: for Relatively Cell inhibition of vehicle control(%): Capan-1
Experimental: To measure the cell inhibition effect of compounds and synergy effect of test articles on ten (10) cell lines using standard CTG assay.
b. A549, T47D, SK-OV-3, MKN45, SK-Hep-1, HT-29, Capan-1, 786-O and LNCaP cell line, for compounds and vehicle groups, the seeding density of cell lines is 3000 cells/80 µL per well. For blank groups, add 100 µL medium. For PBS groups, add 100 µL PBS.
8) Incubate the U87MG, A549, T47D, SK-OV-3, MKN45, SK-Hep-1, HT-29, Capan-1, 786-O and LNCaP cells overnight at 37° C./5% CO2.
5) Incubate the plates at 37° C./5% CO2 for 72 hours.
6) Read plates in Envision.

[2] = system: breast cancer line T47D cells; assay: CTG (CellTiter-Glo) cell viability assay, 6×6 combo matrix, 72 h, T47D;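 also: luminescence read-out after 72 h at 37 °C under 5% CO2, with medium-only wells as blanks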
[3] = system: colorectal cancer line HT29 cells; assay: CTG (CellTiter-Glo) cell viability assay, 6×6 combo matrix, 72 h, HT29; details: HT29;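 also: cells exposed to compounds for 72 hours at 37 °C under 5% CO2, then viability read as luminescence after adding CellTiter-Glo Reagent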
[4] = system: lung adenocarcinoma line A549 cells; assay: CTG (CellTiter-Glo) cell viability assay, 6×6 combo matrix, 72 h, A549; details: A549;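 also: luminescent ATP readout with CellTiter-Glo after compound exposure, used to assess growth inhibition and combination synergy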
Experimental: (§1) 7) Using complete cell medium, adjust the volume of the suspension to achieve a cell concentration.
(§2) Solid compound of cis-platinum was solubilized in PBS to a stock solution of 3.333 mM.
(§3) Final volume is 100 µL per well at this point.
(§4) 1) Incubate the plates at room temperature and away from light for 30 minutes.
(§5) 3) Add 100 µL /well of CellTiter-Glo® Reagent in each well. Avoid light.
(§6) 4) Mix contents for 2 minutes on an orbital shaker.
(§7) 5) Incubate plate at room temperature for 10 minutes to stabilize the luminescent signal.

[5] = system: glioblastoma line U87MG cells; assay: CTG (CellTiter-Glo) cell viability assay, 6×6 combo matrix, 72 h, U87MG;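 also: U87MG cells seeded at 2000 per well, exposed 72 h, viability read by CellTiter-Glo luminescence, inhibition expressed relative to vehicle-treated wells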
Experimental: as §1
U87MG cell lines, for compounds and vehicle groups, the seeding density of cell lines is 2000 cells/80 µL per well. For blank groups, add 100 µL medium. For PBS groups, add 100 µL PBS.
as §2, §3, §4, §5, §6, §7

[6] = system: prostate adenocarcinoma line LNCap cells; assay: CTG (CellTiter-Glo) cell viability assay, 6×6 combo matrix, 72 h, LNCaP;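 also: luminescence signal read after adding CellTiter-Glo reagent, with cells exposed to compounds for 72 h at 37 °C under 5% CO2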
Experimental: as §1, §2, §3, §4, §5, §6, §7

[7] = system: gastric cancer line MKN45 cells; assay: CTG (CellTiter-Glo) cell viability assay, 6×6 combo matrix, 72 h, MKN45;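 also: MKN45 cell viability read as CellTiter-Glo luminescence after 72 h culture at 37 °C under 5% CO2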
Experimental: as §1, §2, §3, §4, §5, §6, §7

[8] = system: kidney cancer line 786-O cells; assay: CTG (CellTiter-Glo) cell viability assay, 6×6 combo matrix, 72 h, 786-O; details: for Relatively Cell inhibition of vehicle control(%): 786-O;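 as to all read-outs here: luminescence read-out after adding CellTiter-Glo reagent, with cells incubated at 37 °C under 5% CO2 during compound exposure, part of a ten cell line synergy study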
Experimental: as §1, §2, §3, §4, §5, §6, §7

[9] = system: ovarian cancer line SK-OV3 cells; assay: CTG (CellTiter-Glo) cell viability assay, 6×6 combo matrix, 72 h, SK-OV-3; details: SK-OV-3;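 also: luminescent signal read after CellTiter-Glo addition, cells exposed to compounds for 72 h at 37 °C under 5% CO2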
[10] = system: Liver cancer line SK-HEP-1 cells; assay: CTG (CellTiter-Glo) cell viability assay, 6×6 combo matrix, 72 h, SK-Hep-1;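 also: luminescent signal read after 72 h compound exposure at 37 °C under 5% CO2, with medium-only wells serving as blank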
Experimental: as §1, §2, §3, §4, §5, §6, §7

[11] = cisplatin 0.048 µM only (myricetin plate)
[12] = cisplatin 1.2 µM only (myricetin plate)
[13] = cisplatin 6 µM only (myricetin plate)
[14] = cisplatin 30 µM only (myricetin plate)

With `N.N.[Cl][Pt][Cl]` [cisplatin] the “Relatively Cell inhibition of vehicle control(%)” value ([1]; Cis 0.048 µM only) was -11.79%, the “Relatively Cell inhibition of vehicle control(%)” value ([1]; Cis 1.2 µM only) was 19.41% and the “Relatively Cell inhibition of vehicle control(%)” value ([1]; Cis 6 µM only) was 49.43%. For the same molecule, the “Relatively Cell inhibition of vehicle control(%)” value ([1]; Cis 30 µM only) was 79.85%, the “Relatively Cell inhibition of vehicle control” value ([1]; cisplatin 0.048 µM only) was -4.42% and the “Relatively Cell inhibition of vehicle control” value ([1]; cisplatin 1.2 µM only) was 16.43%. For the same molecule, the “Relatively Cell inhibition of vehicle control” value ([1]; cisplatin 6 µM only) was 42.34%, the “Relatively Cell inhibition of vehicle control” value ([1]; cisplatin 30 µM only) was 66.79% and the “Relatively Cell inhibition of vehicle control(%)” value ([2]; 0.048 µM cisplatin only (LB-1 0)) was 1.63%. The “Relatively Cell inhibition of vehicle control(%)” value ([2]; 0.048 µM cisplatin only (myricetin 0)) was 0.23%, the “Relatively Cell inhibition of vehicle control(%)” value ([2]; 1.2 µM cisplatin only (LB-1 0)) was -1.67% and the “Relatively Cell inhibition of vehicle control(%)” value ([2]; 1.2 µM cisplatin only (myricetin 0)) was 0.07%. The “Relatively Cell inhibition of vehicle control(%)” value ([2]; 6 µM cisplatin only (LB-1 0)) was -0.49%, the “Relatively Cell inhibition of vehicle control(%)” value ([2]; 6 µM cisplatin only (myricetin 0)) was 11.28% and the “Relatively Cell inhibition of vehicle control(%)” value ([2]; 30 µM cisplatin only (LB-1 0)) was 22.74%. The “Relatively Cell inhibition of vehicle control(%)” value ([2]; 30 µM cisplatin only (myricetin 0)) was 36.54%, the “Relatively Cell inhibition of vehicle control(%)” value ([3]; Cis 0.048 µM only (LB-1 0)) was 2.74% and the “Relatively Cell inhibition of vehicle control(%)” value ([3]; Cis 0.048 µM only (Myr 0)) was -4.21%. For the same molecule, the “Relatively Cell inhibition of vehicle control(%)” value ([3]; Cis 1.2 µM only (LB-1 0)) was 6.85%, the “Relatively Cell inhibition of vehicle control(%)” value ([3]; Cis 1.2 µM only (Myr 0)) was 6.63% and the “Relatively Cell inhibition of vehicle control(%)” value ([3]; Cis 6 µM only (LB-1 0)) was 19.05%. For the same molecule, the “Relatively Cell inhibition of vehicle control(%)” value ([3]; Cis 6 µM only (Myr 0)) was 20.8%, the “Relatively Cell inhibition of vehicle control(%)” value ([3]; Cis 30 µM only (LB-1 0)) was 52.83% and the “Relatively Cell inhibition of vehicle control(%)” value ([3]; Cis 30 µM only (Myr 0)) was 66.86%. The inhibition rate ([4]; 30 µM cisplatin only (LB-1 0), 72 h) was 65.03%, the “Relatively Cell inhibition of vehicle control(%)” value ([4]; cisplatin 0.048 µM only (myricetin 0)) was 1.46% and the “Relatively Cell inhibition of vehicle control(%)” value ([4]; cisplatin 1.2 µM only (myricetin 0)) was 0.61%. For the same molecule, the “Relatively Cell inhibition of vehicle control(%)” value ([4]; cisplatin 6 µM only (myricetin 0)) was 33.19%, the “Relatively Cell inhibition of vehicle control(%)” value ([4]; cisplatin 30 µM only (myricetin 0)) was 77.27% and the “Relatively Cell inhibition of vehicle control(%)” value ([4]; Cis 0.048 µM only) was 0.17%. The “Relatively Cell inhibition of vehicle control(%)” value ([4]; Cis 1.2 µM only) was 1.57%, the “Relatively Cell inhibition of vehicle control(%)” value ([4]; Cis 6 µM only) was 33.27% and the “Relatively Cell inhibition of vehicle control(%)” value ([4]; Cis 30 µM only) was 65.03%. The “Relatively Cell inhibition of vehicle control(%)” value ([5]; cisplatin 0.048 µM only) was 1.97%, the “Relatively Cell inhibition of vehicle control(%)” value [5, 11] was 0.89% and the “Relatively Cell inhibition of vehicle control(%)” value ([5]; cisplatin 1.2 µM only) was 11.78%. For the same molecule, the “Relatively Cell inhibition of vehicle control(%)” value [5, 12] was 15.05%, the “Relatively Cell inhibition of vehicle control(%)” value ([5]; cisplatin 6 µM only) was 46.78% and the “Relatively Cell inhibition of vehicle control(%)” value [5, 13] was 58.90%. For the same molecule, the “Relatively Cell inhibition of vehicle control(%)” value ([5]; cisplatin 30 µM only) was 83.20%, the “Relatively Cell inhibition of vehicle control(%)” value [5, 14] was 86.28% and the “Relatively Cell inhibition of vehicle control(%)” value ([6]; cisplatin 0.048 µM only (LB-1 plate)) was -11.07%. For the same molecule, the “Relatively Cell inhibition of vehicle control(%)” value [6, 11] was -7.42%, the “Relatively Cell inhibition of vehicle control(%)” value ([6]; cisplatin 1.2 µM only (LB-1 plate)) was -13.28% and the “Relatively Cell inhibition of vehicle control(%)” value [6, 12] was -9.21%. For the same molecule, the “Relatively Cell inhibition of vehicle control(%)” value ([6]; cisplatin 6 µM only (LB-1 plate)) was 12.99%, the “Relatively Cell inhibition of vehicle control(%)” value [6, 13] was 19.01% and the “Relatively Cell inhibition of vehicle control(%)” value ([6]; cisplatin 30 µM only (LB-1 plate)) was 53.09%. For the same molecule, the “Relatively Cell inhibition of vehicle control(%)” value [6, 14] was 61.54%, the “Relatively Cell inhibition of vehicle control(%)” value ([7]; Cis 0.048 µM only (LB-1 0)) was 7.78% and the “Relatively Cell inhibition of vehicle control(%)” value ([7]; Cis 0.048 µM only (Myr 0)) was 5.10%. The “Relatively Cell inhibition of vehicle control(%)” value ([7]; Cis 1.2 µM only (LB-1 0)) was 5.53%, the “Relatively Cell inhibition of vehicle control(%)” value ([7]; Cis 1.2 µM only (Myr 0)) was 22.76% and the “Relatively Cell inhibition of vehicle control(%)” value ([7]; Cis 6 µM only (LB-1 0)) was 33.22%. The “Relatively Cell inhibition of vehicle control(%)” value ([7]; Cis 6 µM only (Myr 0)) was 48.92%, the “Relatively Cell inhibition of vehicle control(%)” value ([7]; Cis 30 µM only (LB-1 0)) was 81.54% and the “Relatively Cell inhibition of vehicle control(%)” value ([7]; Cis 30 µM only (Myr 0)) was 90.46%. The “Relatively Cell inhibition of vehicle control(%)” value ([8]; Cis 0.048 µM only (LB-1 0)) was 0.45%, the “Relatively Cell inhibition of vehicle control(%)” value ([8]; Cis 1.2 µM only (LB-1 0)) was 5.31% and the “Relatively Cell inhibition of vehicle control(%)” value ([8]; Cis 6 µM only (LB-1 0)) was 60.32%. The “Relatively Cell inhibition of vehicle control(%)” value ([8]; Cis 30 µM only (LB-1 0)) was 90.04%, the “Relatively Cell inhibition of vehicle control” value ([8]; cisplatin 0.048 µM only) was -1.09% and the “Relatively Cell inhibition of vehicle control” value ([8]; cisplatin 1.2 µM only) was 10.33%. For the same molecule, the “Relatively Cell inhibition of vehicle control” value ([8]; cisplatin 6 µM only) was 67.62%, the “Relatively Cell inhibition of vehicle control” value ([8]; cisplatin 30 µM only) was 86.78% and the “Relatively Cell inhibition of vehicle control(%)” value ([9]; Cis 0.048 µM only (LB-1 matrix)) was -0.61%. For the same molecule, the “Relatively Cell inhibition of vehicle control(%)” value ([9]; Cis 0.048 µM only (myricetin matrix)) was 0.65%, the “Relatively Cell inhibition of vehicle control(%)” value ([9]; Cis 1.2 µM only (LB-1 matrix)) was 7.66% and the “Relatively Cell inhibition of vehicle control(%)” value ([9]; Cis 1.2 µM only (myricetin matrix)) was 17.32%. For the same molecule, the “Relatively Cell inhibition of vehicle control(%)” value ([9]; Cis 6 µM only (LB-1 matrix)) was 50.05%, the “Relatively Cell inhibition of vehicle control(%)” value ([9]; Cis 6 µM only (myricetin matrix)) was 55.97% and the “Relatively Cell inhibition of vehicle control(%)” value ([9]; Cis 30 µM only (LB-1 matrix)) was 88.98%. The “Relatively Cell inhibition of vehicle control(%)” value ([9]; Cis 30 µM only (myricetin matrix)) was 85.03%, the “Relatively Cell inhibition of vehicle control” value ([10]; cisplatin 0.048 µM only (LB-1 table)) was -8.71% and the “Relatively Cell inhibition of vehicle control” value ([10]; cisplatin 0.048 µM only (myricetin table)) was -7.69%. For the same molecule, the “Relatively Cell inhibition of vehicle control” value ([10]; cisplatin 1.2 µM only (LB-1 table)) was -10.98%, the “Relatively Cell inhibition of vehicle control” value ([10]; cisplatin 1.2 µM only (myricetin table)) was -2.56% and the “Relatively Cell inhibition of vehicle control” value ([10]; cisplatin 6 µM only (LB-1 table)) was 29.88%. The “Relatively Cell inhibition of vehicle control” value ([10]; cisplatin 6 µM only (myricetin table)) was 29.55%, the “Relatively Cell inhibition of vehicle control” value ([10]; cisplatin 30 µM only (LB-1 table)) was 70.68% and the “Relatively Cell inhibition of vehicle control” value ([10]; cisplatin 30 µM only (myricetin table)) was 76.71%.
